Earlier results, collected in patent US11026907B2, “Azelaic acid gel, preparation method and application thereof” (CHENGDU JOY YOUNG BIOTECHNOLOGY CO., LTD., priority 2018, dated 2021).
Like-named read-outs stand apart in the source and are kept apart here.

Solubility (in cold water, ether and benzene): slightly soluble
Solubility (in hot water, alcohol and some polyols): soluble
SMILES: O=C(O)CCCCCCCC(=O)O [Azelaic acid]
